Reference: patent US20140350273A1, “PEDIATRIC USES OF CABAZITAXEL” (AVENTIS PHARMA S.A., priority 2012, published 2014)
Like-named read-outs stand apart in the source and are kept apart here.

System: human Ewing's sarcoma TC-71
Type: in vivo
Settings: for Average body weight change in % per mouse at nadir / Biological interpretation / Drug death / Regressions Complete / Regressions Partial / Tumor free survivors at day 120 / day of nadir / ΔT/ΔC in % (day 21): 16
Procedure: This efficacy may be quantified, for example, as changes in tumor volume for each treated (T) and control (C) group, which are calculated for each animal and each day by subtracting the tumor volume on the day of first treatment (staging day) from the tumor volume on the specified observation day. This allows calculating the tumor growth inhibition: ΔT/ΔC=(median delta T/median delta C)×100. Individual tumor volume changes from baseline are thereafter analyzed by a non-parametric two-way ANOVA-TYPE (with factors: group and repeated days) followed by a post-hoc contrasts analysis, with Bonferroni-Holm adjustment for multiplicity, comparing all treated groups to the control group. […] A probability less than 5% (p<0.05) was considered as significant.
Based on the National Cancer Institute (NCl) standards, a ΔT/ΔC≦40% is the minimal level required to declare activity.
The tumor doubling time (in days; Td) was estimated from the plot of the log linear growth of the control group tumors in exponential growth (100 to 1000 mm^3 range) [T. H. Corbett et al., Cancer, 40: 2660-2680 (1977); F. M. Schabel et al., Cancer Drug Development, Part B, Methods in Cancer Research, 17: 3-51, New York, Academic Press Inc. (1979)].
This efficacy may also be quantified by the number of tumor regressions observed after therapy. Individual mice reporting a tumor volume ≦50% of the Day 0 measurement for two consecutive measurements over a seven day period were considered partial responders (PR). Individual mice lacking palpable tumors (<4×4 mm^2 for two consecutive measurements over a seven day period) were classified as complete responders (CR); a CR that persisted until study completion was considered a tumor-free survivor (TFS).
The animals subjected to the experiment are subcutaneously grafted unilaterally with approximately 30 mg of a tumor fragment on day 0. The animals are implanted with a human tumor xenografted in immunocompromized mice. Several days post tumor implantation, mice are randomized according to their body weight to the different groups of treatments and controls. The animals are observed every day. […] The groups are then weighed once or twice a week until the end of the trial.
The tumors are measured 1 to 5 times a week, depending on the tumor doubling time, until the tumor reaches approximately 1,000 mm^3, or until the animal dies (if this occurs before the tumor reaches 1,000 mm^3). The animals are necropsied immediately after euthanasia or death.
The selected tumor model was a human Ewing's sarcoma TC-71, xenografted in SCID mice [Whang-Peng J, et al. Cancer Genet Cytogenet. 1986 Apr. 1; 21(3):185208].
Treatment solutions were prepared first by mixing 1 volume of ethanolic stock solution and 1 volume of polysorbate 80, then by adding 18 volumes of glucose 5% in water.

[1] = 3.5 mg/kg per injection (total 7.0) IV days 12
[2] = 5.6 mg/kg per injection (total 11.2) IV days 12
[3] = 5.6 mg/kg per injection (total 11.2) IV days 12, listed as CABAZITAXEL
[4] = 9.0 mg/kg per injection (total 18) IV days 12
[5] = 9.0 mg/kg per injection (total 18) IV days 12, listed as CABAZITAXEL
[6] = 14.5 mg/kg per injection (total 29) IV days 12
[7] = 14.5 mg/kg per injection (total 29) IV days 12, listed as CABAZITAXEL
[8] = 3.5 mg/kg per injection (total 7.0) IV days 12, listed as DOCETAXEL
[9] = 3.5 mg/kg per injection (total 7.0) IV days 12, listed as docetaxel
[10] = 9.0 mg/kg per injection (total 18) IV days 12, listed as DOCETAXEL
[11] = 9.0 mg/kg per injection (total 18) IV days 12, listed as docetaxel
[12] = 14.5 mg/kg per injection (total 29) IV days 12, listed as DOCETAXEL

In the case of CO[C@H]1C(=O)[C@]2(C)[C@@H](OC)C[C@H]3OC[C@@]3(OC(C)=O)[C@H]2[C@H](OC(=O)c2ccccc2)[C@]2(O)C[C@H](OC(=O)[C@H](O)[C@@H](NC(=O)OC(C)(C)C)c3ccccc3)C(C)=C1C2(C)C [Cabazitaxel, 4α-acetoxy-2α-benzoyloxy-5β,20-epoxy-1β-hydroxy-7β,10β-dimethoxy-9-oxo-11-taxen-13α-yl (2R,3S)-3-tert-butoxycarbonyl-amino-2-hydroxy-3-phenylpropionate], the “Average body weight change in % per mouse at nadir” value [1] is reported as −2.3%, the Biological interpretation [1] is reported as “active” and the Drug death [1] is reported as 0/7. The “Regressions Complete” value [1] was 0/7, the “Regressions Partial” value [1] was 0/7 and the “Tumor free survivors at day 120” value [1] was 0/7. For the same molecule, the day of nadir [1] was 21 days, the “ΔT/ΔC in % (day 21)” value [1] was 27% and the Biological interpretation (3.5 mg/kg per injection (total 7.0) IV days 12, listed as CABAZITAXEL) was “Active”. The “Average body weight change in % per mouse at nadir” value [2] was −7.0%, the Drug death [2] was 0/7 and the “Regressions Complete” value [2] was 0/7. For the same molecule, the “Regressions Partial” value [2] was 6/7, the “Tumor free survivors at day 120” value [2] was 0/7 and the day of nadir [2] was 18 days. For the same molecule, the Biological interpretation [3] was “Highly Active”, the “ΔT/ΔC in % (day 21)” value [3] was under 0% and the Biological interpretation (5.6 mg/kg per injection (total 11.2) IV days 12, listed as cabazitaxel) was “highly active”. For the same molecule, the “Tumor volume changes from baseline: Median (nMad)” value (from here on “Tumor volume changes from baseline”) (5.6 mg/kg, day 26) was −162 (65.2), the “Average body weight change in % per mouse at nadir” value [4] was −7.0% and the Drug death [4] was 0/7. The “Regressions Complete” value [4] was 6/7, the “Regressions Partial” value [4] was 7/7 and the “Tumor free survivors at day 120” value [4] was 6/7. For the same molecule, the day of nadir [4] was 18 days, the Biological interpretation [5] was “Highly Active” and the “ΔT/ΔC in % (day 21)” value [5] was under 0%. The Biological interpretation (9.0 mg/kg per injection (total 18) IV days 12, listed as cabazitaxel) was “highly active”, the “Tumor volume changes from baseline” value (9 mg/kg, day 26) was −196 (51.9) and the “Tumor volume changes from baseline” value (9 mg/kg, day 28) was −196 (50.4). The “Tumor volume changes from baseline” value (9 mg/kg, day 30) was −196 (50.4), the “Tumor volume changes from baseline” value (9 mg/kg, day 34) was −196 (72.6) and the “Average body weight change in % per mouse at nadir” value [6] was −9.0%. The Drug death [6] was 0/7, the “Regressions Complete” value [6] was 7/7 and the “Regressions Partial” value [6] was 7/7. The “Tumor free survivors at day 120” value [6] was 6/7, the day of nadir [6] was 23 days and the Biological interpretation [7] was “Highly Active”. The “ΔT/ΔC in % (day 21)” value [7] was under 0%, the Biological interpretation (14.5 mg/kg per injection (total 29) IV days 12, listed as cabazitaxel) was “highly active” and the “Tumor volume changes from baseline” value (14.5 mg/kg, day 26) was −184 (43). The “Tumor volume changes from baseline” value (14.5 mg/kg, day 28) was −194 (47.4), the “Tumor volume changes from baseline” value (14.5 mg/kg, day 30) was −198 (53.4) and the “Tumor volume changes from baseline” value (14.5 mg/kg, day 34) was −198 (53.4). The “Tumor volume changes from baseline” value (14.5 mg/kg, day 36) was −180 (53.4), the “Tumor volume changes from baseline” value (14.5 mg/kg, day 40) was −180 (53.4) and the “antitumor activity compared with docetaxel” value (conclusion of example 2) was “more active than docetaxel”.
In the case of CC(=O)O[C@@]12CO[C@@H]1C[C@H](O)[C@@]1(C)C(=O)[C@H](O)C3=C(C)[C@@H](OC(=O)[C@H](O)[C@@H](NC(=O)OC(C)(C)C)c4ccccc4)C[C@@](O)([C@@H](OC(=O)c4ccccc4)[C@H]21)C3(C)C [Docetaxel, docetaxel], the “Average body weight change in % per mouse at nadir” value [1] is reported as −1.8%, the Drug death [1] is reported as 0/7 and the “Regressions Complete” value [1] is reported as 0/7. The “Regressions Partial” value [1] was 0/7, the “Tumor free survivors at day 120” value [1] was 0/7 and the day of nadir [1] was 13 days. The Biological interpretation [8] was “Inactive”, the “ΔT/ΔC in % (day 21)” value [8] was 77% and the Biological interpretation [9] was “inactive”. The “ΔT/ΔC in % (day 21)” value [9] was over 40%, the “Tumor volume changes from baseline” value (3.5 mg/kg, day 19) was 629 and the “Tumor volume changes from baseline” value (3.5 mg/kg, day 21) was 1044. The “Average body weight change in % per mouse at nadir” value [2] was −13.7%, the Drug death [2] was 0/7 and the “Regressions Complete” value [2] was 0/7. For the same molecule, the “Regressions Partial” value [2] was 0/7, the “Tumor free survivors at day 120” value [2] was 0/7 and the day of nadir [2] was 22 days. The “ΔT/ΔC in % (day 21)” value [2] was 31%, the Biological interpretation (5.6 mg/kg per injection (total 11.2) IV days 12, listed as DOCETAXEL) was “Active” and the Biological interpretation (5.6 mg/kg per injection (total 11.2) IV days 12, listed as docetaxel) was “active”. The “Tumor volume changes from baseline” value (5.6 mg/kg, day 19) was 371, the “Tumor volume changes from baseline” value (5.6 mg/kg, day 21) was 416 and the “Tumor volume changes from baseline” value (5.6 mg/kg, day 26) was 1022.5. For the same molecule, the “Average body weight change in % per mouse at nadir” value [4] was −10.8%, the Drug death [4] was 0/7 and the “Regressions Complete” value [4] was 0/7. For the same molecule, the “Tumor free survivors at day 120” value [4] was 0/7, the day of nadir [4] was 23 days and the Biological interpretation [10] was “Highly Active”. The “Regressions Partial” value [10] was 2/7, the “ΔT/ΔC in % (day 21)” value [10] was under 0% and the Biological interpretation [11] was “highly active”. The “Regressions Partial” value [11] was 5/7, the “Tumor volume changes from baseline” value (9 mg/kg, day 19) was 139 and the “Tumor volume changes from baseline” value (9 mg/kg, day 21) was −36. The “Tumor volume changes from baseline” value (9 mg/kg, day 26) was 158, the “Tumor volume changes from baseline” value (9 mg/kg, day 30) was 406 (252) and the “Tumor volume changes from baseline” value (9 mg/kg, day 34) was 867 (209). For the same molecule, the “Average body weight change in % per mouse at nadir” value [6] was −12.4%, the Drug death [6] was 0/7 and the “Regressions Complete” value [6] was 2/7. For the same molecule, the “Regressions Partial” value [6] was 6/7, the “Tumor free survivors at day 120” value [6] was 1/7 and the day of nadir [6] was 23 days. For the same molecule, the Biological interpretation [12] was “Highly Active”, the “ΔT/ΔC in % (day 21)” value [12] was under 0% and the Biological interpretation (14.5 mg/kg per injection (total 29) IV days 12, listed as docetaxel) was “highly active”. The “Tumor volume changes from baseline” value (14.5 mg/kg, day 16) was 154, the “Tumor volume changes from baseline” value (14.5 mg/kg, day 19) was −72 and the “Tumor volume changes from baseline” value (14.5 mg/kg, day 21) was −130. For the same molecule, the “Tumor volume changes from baseline” value (14.5 mg/kg, day 26) was −130, the “Tumor volume changes from baseline” value (14.5 mg/kg, day 28) was −144 and the “Tumor volume changes from baseline” value (14.5 mg/kg, day 30) was −126. The “Tumor volume changes from baseline” value (14.5 mg/kg, day 34) was −49, the “Tumor volume changes from baseline” value (14.5 mg/kg, day 36) was 75 (330.6) and the “Tumor volume changes from baseline” value (14.5 mg/kg, day 40) was 763.
